The target of this assay is T1, full-length human PKCι (Homo sapiens, UniProt P41743).
T1 construct: Recombinant, full-length human PKCι expressed in Sf21 insect cells is also commercially available; purchased EMD Millipore; host or cells: Sf21 insect cells (baculovirus)
T1 sequence (P41743 1-596): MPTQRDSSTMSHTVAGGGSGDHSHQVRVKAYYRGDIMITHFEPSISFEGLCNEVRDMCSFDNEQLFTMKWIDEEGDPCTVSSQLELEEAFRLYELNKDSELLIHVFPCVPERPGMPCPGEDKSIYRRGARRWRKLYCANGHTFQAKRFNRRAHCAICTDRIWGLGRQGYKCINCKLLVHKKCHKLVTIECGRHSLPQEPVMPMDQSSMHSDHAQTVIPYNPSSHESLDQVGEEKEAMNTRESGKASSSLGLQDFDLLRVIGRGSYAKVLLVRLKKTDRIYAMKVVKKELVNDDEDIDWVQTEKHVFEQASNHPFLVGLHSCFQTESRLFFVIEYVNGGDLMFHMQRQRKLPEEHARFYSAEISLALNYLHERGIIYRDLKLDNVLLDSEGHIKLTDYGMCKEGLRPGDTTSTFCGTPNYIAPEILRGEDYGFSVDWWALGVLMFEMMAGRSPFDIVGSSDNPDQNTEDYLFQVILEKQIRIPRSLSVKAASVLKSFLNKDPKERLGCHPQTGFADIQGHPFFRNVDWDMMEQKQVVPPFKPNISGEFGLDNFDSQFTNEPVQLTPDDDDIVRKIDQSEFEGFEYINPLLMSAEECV
Kind of assay: PKCι IC50 IMAP fluorescence polarisation assay, full-length enzyme, 150 μM ATP. Format: biochemical. To be noted: read-out: IC50 in IMAP assay against full length PKCi at 150 μM ATP. An excerpt: Assays are based on the ability of PKCι to phosphorylate a commercially available peptide substrate in vitro. The peptide substrate is FAM-PKCε pseudopeptide derived peptide, and comprises the amino acid sequence 5FAM-ERMRPRKRQGSVRRRV-NH2. Recombinant, full-length human PKCι expressed in Sf21 insect cells is also commercially available. Recombinant, kinase-domain human PKCι is expressed and purified in-house.
The procedure below explains how dose response curves for inhibitors of PKCι are obtained. The screen described is for a 384 well format but the assay can be adapted to 1536 or other formats as required.
Compounds to be tested are dissolved in 100% DMSO. Compounds are diluted as required to give a final concentration of 4% DMSO (v/v) in the assay. 1 μl is plated into 384 well black low-binding flat bottomed assay plates which are used immediately. Dilutions and additions of compound to assay plates are carried out using Matrix WellMate® and Matrix PlateMate® Plus liquid handling systems.
On the day of the screen PKCι/substrate working solution, and ATP working solution, are prepared in buffer containing 20 mM tris-HCl pH7.5, 10 mM MgCl2, 0.01% Triton X100, 250 μM EGTA and 1 mM DTT. The final concentration of PKCι used varies depending on the batch of protein but is typically 15 pM. The final concentration of peptide substrate in the assay is 100 nM. ATP is used at a final concentration of 150 μM or 25 μM in the assays containing full-length or kinase-domain PKCι respectively, which corresponds to five times or equal to the KM^APP for ATP for each enzyme, respectively. The final buffer concentration in the assay is 18 mM tris-HCl pH7.5, 9 mM MgCl2, 0.009% Triton X100, 225 μM EGTA and 0.9 mM DTT. Relevant controls are included, namely no compound and no enzyme. 5 μl PKCι/substrate working solution at 30 pM and 200 nM, respectively, is added to the wells, followed by 4 μl ATP working solution at 375 μM or 62.5 μM for full-length or kinase-domain PKCι respectively, using a 16 channel Matrix pipette. The reaction is allowed to incubate for 60 minutes at room temperature, before the reaction is stopped and developed by the addition of 20 μl IMAP™ development reagent (Molecular Devices). IMAP development reagent consists of 0.25% (v/v) IMAP progressive binding reagent, 17% (v/v) IMAP progressive binding buffer A and 3% (v/v) IMAP progressive binding buffer B. The plates are then incubated for 2 hours at room temperature before being read using an appropriate plate reader, for example a Molecular Devices HT Analyst or a BMG Pherastar. Plates are read using a fluorescence polarisation protocol with excitation at 485 nm and emission at 530 nm, and dichroic mirror at 505 nm.
Percentage inhibition values are calculated from fluorescence polarisation values, using the no compound and no enzyme control values as 0% and 100% inhibition, respectively. IC50 determination is performed with ExcelFit software (IDBS) using curve fit 205. Z′ factors are determined for each plate tested and are all above 0.5.
Alternatively, compounds were tested for their ability to inhibit the kinase activity of recombinant human baculovirus-expressed PKCiota using the immobilized metal-ion affinity particle (IMAP®) fluorescence polarization detection system (Molecular Devices, Sunnyvale, Calif.). PKCiota/IMAP® substrate mixture (2×) was prepared in 1×IMAP assay buffer (Molecular Devices) containing 1 mM DTT so that the final assay concentrations were 15 pM PKCiota (EMD Millipore, Billerica, Mass.) and 100 nM 5-fluorescein-amidite (FAM)-PKC ? -pseudosubstrate (5-FAM-ERMRPRKRQGSVRRRV-NH2) (Molecular Devices). The 2× working solution was added at 5 μL/well into a 384-well black, non-binding, flat bottom assay plate (Corning, Corning, N.Y.). […]

Consider `CN(c1nc(-c2ccnc3[nH]c(-c4ncccc4F)cc23)nc2cncc(C3CC3)c12)[C@H]1CCNCC1(C)C` [Example 384, {5-Cyclopropyl-2-[2-(3-fluoro-pyridin-2-yl)-1H-pyrrolo[2,3-b]pyridin-4-yl]-pyrido[3,4-d]pyrimidin-4-yl}-((S)-3,3-dimethyl-piperidin-4-yl)-methyl-amine], for which the IC50 was below 100 nM. To `CC1(C)CNCC[C@@H]1Nc1nc(-c2ccnc(Nc3cc(F)ccn3)c2)nc2cncc(C3CC3)c12` [Example 392, {5-Cyclopropyl-2-[2-(4-fluoro-pyridin-2-ylamino)-pyridin-4-yl]-pyrido[3,4-d]pyrimidin-4-yl}-((S)-3,3-dimethyl-piperidin-4-yl)-amine] belongs below 100 nM; to `Clc1ccccc1-c1cc2c(-c3nc(N4CC[C@@H]5CNCC[C@@H]54)c4c(C5CC5)cncc4n3)ccnc2[nH]1` (racemic) [Example 27, (±)-2-[2-(2-Chloro-phenyl)-1H-pyrrolo[2,3-b]pyridin-4-yl]-5-cyclopropyl-4-(3aR,7aS)-octahydro-pyrrolo[3,2-c]pyridin-1-yl-pyrido[3,4-d]pyrimidine], below 100 nM.

For the compound `CC1(C)CNCC[C@@H]1Nc1nc(-c2ccnc(Nc3ccc(F)cn3)c2)nc2cncc(C3CC3)c12` [Example 393, {5-Cyclopropyl-2-[2-(5-fluoro-pyridin-2-ylamino)-pyridin-4-yl]-pyrido[3,4-d]pyrimidin-4-yl}-((S)-3,3-dimethyl-piperidin-4-yl)-amine], the IC50 is below 100 nM.

For the compound `c1ccc(Nc2cc(-c3nc(N[C@H]4[C@@H]5CNC[C@@H]54)c4c(C5CCC5)cncc4n3)ccn2)cc1` [Example 111, (1S,6S)-3-Aza-bicyclo[3.1.0]hex-6-yl-[(R)-5-cyclobutyl-2-(2-phenylamino-pyridin-4-yl)-pyrido[3,4-d]pyrimidin-4-yl]-amine], the IC50 was below 100 nM. To `O[C@]12CCN(c3nc(-c4ccnc5[nH]c(C(F)(F)F)cc45)nc4cncc(C5CC5)c34)[C@H]1CCNC2` (racemic) [Example 104, (±)-(3aS,7aS)-1-[5-Cyclopropyl-2-(2-trifluoromethyl-1H-pyrrolo[2,3-b]pyridin-4-yl)-pyrido[3,4-d]pyrimidin-4-yl]-octahydro-pyrrolo [3,2-c]pyridin-3a-ol] belongs below 100 nM; to `COc1nc(-c2ccnc3[nH]c4ccccc4c23)nc2cncc(C3CCC3)c12` [Example 30, 4-(5-Cyclobutyl-4-methoxy-pyrido[3,4-d]pyrimidin-2-yl)-9H-pyrido[2,3-b]indole], 10000 to 40000 nM. To `C[C@@H]1CNCC[C@@H]1Nc1nc(-c2ccnc(Nc3ncccc3F)c2)nc2cncc(C3CCC3)c12` (racemic) [Example 282, {5-Cyclobutyl-2-[2-(3-fluoro-pyridin-2-ylamino)-pyridin-4-yl]-pyrido[3,4-d]pyrimidin-4-yl}-(rac-(3R,4S)-3-methyl-piperidin-4-yl)-amine] belongs below 100 nM; to `CSc1cc2c(-c3nc(N4CCNCC4)c4c(C5CC5)cncc4n3)ccnc2[nH]1` [Example 16, 5-Cyclopropyl-2-(2-methylsulfanyl-1H-pyrrolo[2,3-b]pyridin-4-yl)-4-piperazin-1-yl pyrido[3,4-d]pyrimidine], below 100 nM; to `c1ccc2c(c1)[nH]c1nccc(-c3nc(N[C@@H]4CCCNCC4)c4c(C5CCC5)cncc4n3)c12` [Example 141, (R)-Azepan-4-yl-[5-cyclobutyl-2-(9H-pyrido[2,3-b]indol-4-yl)-pyrido[3,4-d]pyrimidin-4-yl]-amine], below 100 nM. For the compound `c1ccc2c(c1)oc1nccc(-c3nc(NC4CCNCC4)c4c(C5CC5)cncc4n3)c12` [Example 374, 2-(benzofuro[2,3-b]pyridin-4-yl)-5-cyclopropyl-N-(4-piperidyl)pyrido[3,4-d]pyrimidin-4-amine], the IC50 was 1000 to 10000 nM. As for `COc1cncc2nc(-c3ccnc(Nc4nc(F)ccc4F)c3)nc(NC3CCNCC3(C)C)c12` (racemic) [Example 261, rac-2-[2-[(3,6-difluoro-2-pyridyl)amino]-4-pyridyl]-N-(3,3-dimethyl-4-piperidyl)-5-methoxy-pyrido[3,4-d]pyrimidin-4-amine], the figure is below 100 nM; as for `C[C@@H]1C[C@@H](Nc2nc(-c3ccnc(Nc4nc(F)ccc4F)c3)nc3cncc(C4CCC4)c23)CCN1` (racemic) [Example 387, {5-Cyclobutyl-2-[2-(3,6-difluoro-pyridin-2-ylamino)-pyridin-4-yl]-pyrido[3,4-d]pyrimidin-4-yl}-(rac-(2R,4S)-2-methyl-piperidin-4-yl)-amine], below 100 nM. As for `C[C@@H]1CNCC[C@H]1Nc1nc(-c2ccnc(Nc3ncc(F)cc3F)c2)nc2cncc(C3CC3)c12` (racemic) [Example 303, {5-Cyclopropyl-2-[2-(3,5-difluoro-pyridin-2-ylamino)-pyridin-4-yl]-pyrido[3,4-d]pyrimidin-4-yl}-(rac-(3R,4R)-3-methyl-piperidin-4-yl)-amine], the figure is below 100 nM; as for `CC1(C)CNCC[C@@H]1Nc1nc(-c2ccnc(Nc3cncc(F)c3)c2)nc2cncc(C3CC3)c12` [Example 265, 5-cyelopropyl-N-[(4S)-3,3-dimethyl-4-piperidyl]-2-[2-[(5-fluoro-3-pyridyl)amino]-4-pyridyl]pyrido[3,4-d]pyrimidin-4-amine], 100 to 1000 nM. For `CC1(C)CNCC[C@@H]1Nc1nc(-c2ccnc(Nc3ncccc3Cl)c2)nc2cncc(C3CC3)c12` [Example 339, 2-[2-[(3-Chloro-2-pyridyl)amino]-4-pyridyl]-5-cyclopropyl-N-[(4S)-3,3-dimethyl-4-piperidyl]pyrido[3,4-d]pyrimidin-4-amine], the IC50 is 100 to 1000 nM.

Take `CC1(C)CNCC[C@@H]1Nc1nc(-c2ccnc(Nc3ncc(Cl)cc3F)c2)nc2cncc(C3CCC3)c12` [Example 316, {2-[2-(5-Chloro-3-fluoro-pyridin-2-ylamino)-pyridin-4-yl]-5-cyclobutyl-pyrido[3,4-d]pyrimidin-4-yl}-((S)-3,3-dimethyl-piperidin-4-yl)-amine]: the IC50 is below 100 nM. Regarding `Fc1ccc(F)c(Nc2cc(-c3nc(N4CCOC5CNCC54)c4c(C5CCC5)cncc4n3)ccn2)n1` (stereo not shown) [Example 256, {4-[5-Cyclobutyl-4-(hexahydro-pyrrolo[3,4-b]-1,4-oxazin-4-yl)-pyrido[3,4-d]pyrimidin-2-yl]-pyridin-2-yl}-(3,6-difluoro-pyridin-2-yl)-amine], the IC50 is below 100 nM. To `CN(c1nc(-c2ccnc3[nH]c(C(C)(C)C)cc23)nc2cncc(C3CCC3)c12)C1CCNCC1` [Example 213, [2-(2-tert-Butyl-1H-pyrrolo[2,3-b]pyridin-4-yl)-5-cyclobutyl-pyrido[3,4-d]pyrimidin-4-yl]-methyl-piperidin-4-yl-amine] belongs below 100 nM.

For the origin of these results see patent US10414763B2 (CANCER RESEARCH TECHNOLOGY LIMITED, priority 2014, dated 2019).
